These results are taken from patent publication US11724992B2 (Novartis AG, priority 2017, dated 2023).

The subject of one assay is IL-1β production in PMA-differentiated THP-1 cells. The experiment in a line: IL-1β production in PMA-differentiated THP-1 cells stimulated with gramicidin (hTHP-1 assay, 2% fetal bovine serum; Procedures 1-3). Format: cell-based, human. The note with it: Homo sapiens, THP-1, hTHP-1 assay containing 2% fetal bovine serum; class symbols; read-out: hTHP-1 IC50 (Average IC50 of compounds in hTHP-1 assay). Here is the method:
The following protocol is suitable for testing the activity of the compounds disclosed herein.
Procedure 1: IL-1β Production in PMA-Differentiated THP-1 Cells Stimulated with Gramicidin
THP-1 cells were purchased from the American Type Culture Collection and sub-cultured according to instructions from the supplier. Cells were cultured in complete RPMI 1640 (containing 10% heat inactivated FBS, penicillin (100 units/ml) and streptomycin (100 μg/ml)), and maintained in log phase prior to experimental setup. Prior to the experiment, compounds were dissolved in dimethyl sulfoxide (DMSO) to generate a 30 mM stock. The compound stock was first pre-diluted in DMSO to 3, 0.34, 0.042 and 0.0083 mM intermediate concentrations and subsequently spotted using Echo550 liquid handler into an empty 384-well assay plate to achieve desired final concentration (e.g. 100, 33, 11, 3.7, 1.2, 0.41, 0.14, 0.046, 0.015, 0.0051, 0.0017 μM). DMSO was backfilled in the plate to achieve a final DMSO assay concentration of 0.37%. The plate was then sealed and stored at room temperature until required.
THP-1 cells were treated with PMA (Phorbol 12-myristate 13-acetate) (20 ng/ml) for 16-18 hours. On the day of the experiment the media was removed and adherent cells were detached with trypsin for 5 minutes. Cells were then harvested, washed with complete RPMI 1640, spun down, and resuspended in RPMI 1640 (containing 2% heat inactivated FBS, penicillin (100 units/ml) and streptomycin (100 μg/ml). The cells were plated in the 384-well assay plate containing the spotted compounds at a density of 50,000 cells/well (final assay volume 50 μl). Cells were incubated with compounds for 1 hour and then stimulated with gramicidin (5 μM) (Enzo) for 2 hours. Plates were then centrifuged at 340 g for 5 min. Cell free supernatant (40 μL) was collected using a 96-channel PlateMaster (Gilson) and the production of IL-1β was evaluated by HTRF (cisbio). The plates were incubated for 18 h at 4° C. and read using the preset HTRF program (donor emission at 620 nm, acceptor emission at 668 nm) of the SpectraMax i3x spectrophotometer (Molecular Devices, software SoftMax 6). A vehicle only control and a dose titration of CRID3 (100-0.0017 μM) were run concurrently with each experiment.
Procedure 2: IL-1β Production in PMA-Differentiated THP-1 Cells Stimulated with Gramicidin
THP-1 cells were purchased from the American Type Culture Collection and sub-cultured according to instructions from the supplier. Prior to experiments, cells were cultured in complete RPMI 1640 (containing 10% heat inactivated FBS, penicillin (100 units/ml) and streptomycin (100 μg/ml)), and maintained in log phase prior to experimental setup. Prior to the experiment THP-1 were treated with PMA (Phorbol 12-myristate 13-acetate) (20 ng/ml) for 16-18 hours. Compounds were dissolved in dimethyl sulfoxide (DMSO) to generate a 30 mM stock. On the day of the experiment the media was removed and adherent cells were detached with trypsin for 5 minutes. Cells were then harvested, washed with complete RPMI 1640, spun down, resuspended in RPMI 1640 (containing 2% heat inactivated FBS, penicillin (100 units/ml) and streptomycin (100 μg/ml). The cells were plated in a 384-well plate at a density of 50,000 cells/well (final assay volume 50 μl). Compounds were first dissolved in assay medium to obtain a 5× top concentration of 500 μM. 10 step dilutions (1:3) were then undertaken in assay medium containing 1.67% DMSO. 5× compound solutions were added to the culture medium to achieve desired final concentration (e.g. 100, 33, 11, 3.7, 1.2, 0.41, 0.14, 0.046, 0.015, 0.0051, […]). Final DMSO concentration was at 0.37%. Cells were incubated with compounds for 1 hour and then stimulated with gramicidin (5 μM) (Enzo) for 2 hours. Plates were then centrifuged at 340 g for 5 min. Cell free supernatant (40 μL) was collected using a 96-channel PlateMaster (Gilson) and the production of IL-1β was evaluated by HTRF (cisbio). […]
As a reminder, the IC50 is the concentration at which inhibition is half-maximal. For the compound `CN(C)C(C)(C)c1ccc(S(N)(=O)=NC(=O)Nc2c3c(cc4c2CCC4)CCC3)cc1` (stereo not shown) [Example 267, 4-(2-(Dimethylamino)propan-2-yl)-N′-(1,2,3,5,6,7-hexahydro-s-indacen-4-ylcarbamoyl)benzenesulfonimidamide], the IC50 lay within 0.04 to 0.2 µM.
`CC(C)(O)c1ccc(S(N)(=O)=NC(=O)Nc2c3c(c(Cl)c4c2CCC4)CCC3)c(F)c1` (stereo not shown) [Example 41]: the IC50 fell in the range of 0.04 to 0.2 µM.
Take `COC(C)(C)c1ncc(S(N)(=O)=NC(=O)Nc2c3c(cc4c2CCC4)CCC3)s1` (stereo not shown) [Example 295, N′-((1,2,3,5,6,7-hexahydro-s-indacen-4-yl)carbamoyl)-2-(2-methoxypropan-2-yl)thiazole-5-sulfonimidamide]: the IC50 was in the range of 0.04 to 0.2 µM.
The same measure, in the same setting: then `CC(C)(O)c1cnc(S(N)(=O)=NC(=O)Nc2c3c(cc4c2OCC4)CCC3)s1` (stereo not shown) [Example 258, 5-(2-Hydroxypropan-2-yl)-N′-((3,5,6,7-tetrahydro-2H-indeno[5,6-b]furan-8-yl)carbamoyl)thiazole-2-sulfonimidamide], with 0.04 to 0.2 µM.
In the case of `CN(C)Cc1ccc(S(N)(=O)=NC(=O)Nc2c3c(cc4c2CCC4)CCC3)nc1` (stereo not shown) [Example 278, 5-((Dimethylamino)methyl)-N′-(1,2,3,5,6,7-hexahydro-s-indacen-4-ylcarbamoyl)pyridine-2-sulfonimidamide], the IC50 was 0.2 to 1 µM.
Regarding `CC(C)(O)c1ncc([S@](N)(=O)=NC(=O)Nc2c3c(cc4c2CC4)CCC3)s1` (single isomer, unassigned) [Example 224], the IC50 is 0.008 to 0.04 µM.
On to `CC(C)(O)c1ncc(S(N)(=O)=NC(=O)Nc2c3c(cc4c2OCC4)CCC3)s1` (stereo not shown) [Example 289, 2-(2-Hydroxypropan-2-yl)-N′-((3,5,6,7-tetrahydro-2H-indeno[5,6-b]furan-8-yl)carbamoyl)thiazole-5-sulfonimidamide], for which the IC50 fell in the range of 0.04 to 0.2 µM.

The same assay, now with this note: hTHP-1 assay containing 2% fetal bovine serum; class symbols; read-out: hTHP-1 IC50 (Average IC50 of compounds in hTHP-1 assay).
Take `CC(C)(O)c1cnc(S(N)(=O)=NC(=O)Nc2c3c(cc4c2CCC4)CCC3)s1` (single isomer, unassigned) [Example 297, (S) or (R)-N′-((1,2,3,5,6,7-hexahydro-s-indacen-4-yl)carbamoyl)-5-(2-hydroxypropan-2-yl)thiazole-2-sulfonimidamide]: the IC50 was 0.2 to 1 µM.
As for `CC(C)c1cc(C#N)c(F)c(C(C)C)c1NC(=O)N=S(N)(=O)c1cnc(C(C)(C)O)s1` (single isomer, unassigned) [Example 91], the IC50 was 0.04 to 0.2 µM.
`CC(C)(O)c1ccc(S(N)(=O)=NC(=O)Nc2c3c(c(F)c4c2CCC4)CCC3)c(F)c1` (single isomer, unassigned) [Example 152]: the IC50 lay in the range of 0.04 to 0.2 µM.
On the same count and under the same terms, then `CC(C)(O)c1cnc(S(N)(=O)=NC(=O)Nc2c3c(cc4c2CCO4)CCC3)s1` (single isomer, unassigned) [Example 347, (R) or (S)-5-(2-hydroxypropan-2-yl)-N′-((3,5,6,7-tetrahydro-2H-indeno[5,6-b]furan-4-yl)carbamoyl)thiazole-2-sulfonimidamide], with 0.008 to 0.04 µM.
Take `CN(C)Cc1ccc(S(N)(=O)=NC(=O)Nc2c3c(cc4c2CCC4)CCC3)nc1` (single isomer, unassigned) [Example 413, (R) or (S)-5-((dimethylamino)methyl)-N′-((1,2,3,5,6,7-hexahydro-s-indacen-4-yl)carbamoyl)pyridine-2-sulfonimidamide]: the IC50 is 0.2 to 1 µM.
As to `CC(C)c1cc(F)cc(C(C)C)c1NC(=O)N=S(N)(=O)c1cnc(C(C)(C)O)s1` (single isomer, unassigned) [Example 103], the IC50 was in the range of 0.04 to 0.2 µM.
`CC(C)(O)c1ncc([S@](N)(=O)=NC(=O)Nc2c3c(cc4c2CCC4)CCC3)s1` [Example 6]: the IC50 was 0.008 to 0.04 µM.
On to `Cc1cc(S(N)(=O)=NC(=O)Nc2c3c(cc4c2CCC4)CCC3)ccc1C(C)(C)O` (single isomer, unassigned) [Example 162], for which the IC50 lay within 0.2 to 1 µM.
Same read-out and setting: the result for `CC(C)(O)c1nc(CO)c(S(N)(=O)=NC(=O)Nc2c3c(c(C#N)c4c2CCC4)CCC3)s1` (single isomer, unassigned) [Example 191] reads 5 to 30 µM; that for `CC(C)(O)c1nc(CO)c(S(N)(=O)=NC(=O)Nc2c3c(c(C#N)c4c2CCC4)CCC3)s1` (single isomer, unassigned) [Example 190], 0.2 to 1 µM; that for `CC(C)(O)c1cccc(S(N)(=O)=NC(=O)Nc2c3c(cc4c2CCC4)CCC3)c1` (single isomer, unassigned) [Example 150], 5 to 30 µM.
As for `Cc1oc(S(N)(=O)=NC(=O)Nc2c3c(cc4c2CCC4C)CCC3)cc1C(C)(C)O` (single isomer, unassigned) [Example 124], the IC50 lay within 1 to 5 µM.
As to `CC(C)c1cc(OC(F)F)cc(C2CC2)c1NC(=O)N=S(N)(=O)c1cnc(C(C)(C)O)s1` (single isomer, unassigned) [Example 101], the IC50 is 0.04 to 0.2 µM.
For `CN1CCCC1c1ccc(S(=N)(=O)NC(=O)Nc2c3c(cc4c2CCC4)CCC3)cc1` (single isomer, unassigned) [Example 407, (R,R) or (R,S) or (S,S) or (S,R)-N-((1,2,3,5,6,7-hexahydro-s-indacen-4-yl)carbamoyl)-4-(1-methylpyrrolidin-2-yl)benzenesulfonimidamide], the IC50 is 5 to 30 µM.
Regarding `CN1CCCC1c1ccc(S(=N)(=O)NC(=O)Nc2c3c(cc4c2CCC4)CCC3)cc1` (single isomer, unassigned) [Example 408, (S,R) or (S,S) or (R,S) or (R,R)-N-((1,2,3,5,6,7-hexahydro-s-indacen-4-yl)carbamoyl)-4-(1-methylpyrrolidin-2-yl)benzenesulfonimidamide], the IC50 lay within 1 to 5 µM.
As for `CC1CCc2cc3c(c(NC(=O)N=S(N)(=O)c4cnc(C(C)(C)O)s4)c21)CCC3` (single isomer, unassigned) [Example 332, (R,R) or (R,S)-2-(2-hydroxypropan-2-yl)-N′-((3-methyl-1,2,3,5,6,7-hexahydro-s-indacen-4-yl)carbamoyl)thiazole-5-sulfonimidamide], the IC50 lay in the range of 0.2 to 1 µM.
The same measure, in the same setting: then `CN1CCCC1c1ccc(S(=N)(=O)NC(=O)Nc2c3c(cc4c2CCC4)CCC3)cc1` (stereo not shown) [Example 283, N-((1,2,3,5,6,7-hexahydro-s-indacen-4-yl)carbamoyl)-4-(1-methylpyrrolidin-2-yl)benzenesulfonimidamide], with 0.2 to 1 µM.
On to `[2H]C([2H])([2H])C(O)(c1ncc([S@@](N)(=O)=NC(=O)Nc2c3c(cc4c2CCC4)CCC3)s1)C([2H])([2H])[2H]` [Example 394, (S)-N′-((1,2,3,5,6,7-hexahydro-s-indacen-4-yl)carbamoyl)-2-(2-hydroxypropan-2-yl-1,1,1,3,3,3-d6)thiazole-5-sulfonimidamide], for which the IC50 fell in the range of 0.2 to 1 µM.
Turning to `CNCc1ccc(S(N)(=O)=NC(=O)Nc2c3c(cc4c2CCC4)CCC3)cc1` (single isomer, unassigned) [Example 314, (S) or (R)-N′-((1,2,3,5,6,7-hexahydro-s-indacen-4-yl)carbamoyl)-4-((methylamino)methyl)benzenesulfonimidamide], the IC50 is 0.2 to 1 µM.
On the same count and under the same terms, the result for `CC(C)c1cc(F)cc(C(C)C)c1NC(=O)N=S(N)(=O)c1ccc(C(C)(C)O)s1` (single isomer, unassigned) [Example 157] reads 5 to 30 µM.
For the compound `CC(C)(O)c1cc(S(N)(=O)=NC(=O)Nc2c3c(c(F)c4c2CCC4)CCC3)ccc1F` (single isomer, unassigned) [Example 174], the IC50 fell in the range of 0.2 to 1 µM.
